From ChEMBL document CHEMBL3244089, “Structure-activity studies on hallucinogenic amphetamines using molecular connectivity” (1977)

Columns and labels:
[1] = species: Homo sapiens; experiment: Hallucinogenic activity in human relative to mescaline; type: functional
[2] = species: Homo sapiens; experiment: Hallucinogenic activity in human; type: functional

## COc1ccc(CC(C)N)cc1OC (stereo not given)
[1]
  Ratio: 2

## COc1cc(CC(C)N)c(OC)c(OC)c1OC (stereo not given)
[2]
  log(activity): 0.86

## COc1c(CC(C)N)ccc2c1OCO2 (stereo not given)
[1]
  Ratio: 1
[2]
  log(activity): 1

## COc1ccc(OC)c(CC(C)N)c1 (stereo not given)
[2]
  log(activity): 0.87

## CN(C)CCc1c[nH]c2cccc(O)c12 [PSILOCIN]
[1]
  Ratio: 32

## COc1cc(OC)c(CC(C)N)c(OC)c1 (stereo not given)
[2]
  log(activity): 1.03

## CCCc1cc(OC)c(CC(C)N)cc1OC (stereo not given)
[2]
  log(activity): 1.94

## COc1cc(CC(C)N)c(OC)c(OC)c1 (stereo not given)
[2]
  log(activity): 0.63

## COc1cc(CC(C)N)cc2c1OCO2 (stereo not given)
[2]
  log(activity): 0.43

## COc1ccc(CC(C)N)c(OC)c1OC (stereo not given)
[1]
  Ratio: 2

## COc1cc2c(cc1CC(C)N)OCO2 (stereo not given)
[2]
  log(activity): 1.08

## COc1c(CCN)ccc2c1OCO2
[1]
  Ratio: 5

## COc1cc(CC(C)N)cc(OC)c1OC (stereo not given)
[2]
  log(activity): 0.37

## COc1cc(OC)c(OC)cc1CC(C)N (stereo not given)
[2]
  log(activity): 1.26

## COc1ccc(CCN)cc1
[1]
  Ratio: 1

## CCc1cc(OC)c(CC(C)N)cc1OC (stereo not given)
[2]
  log(activity): 2.01

## COc1cc(CC(C)N)c(OC)cc1C (stereo not given) [DOM]
[2]
  log(activity): 1.89

## CCOc1cc(OC)c(CC(C)N)cc1OC (stereo not given)
[2]
  log(activity): 1.22

## COc1cc(CC(C)N)c(OC)cc1Br (stereo not given) [BROLAMFETAMINE]
[2]
  log(activity): 2.71

## COc1ccc(CC(C)N)c2c1OCO2 (stereo not given)
[2]
  log(activity): 0.48

## CCCCc1cc(OC)c(CC(C)N)cc1OC (stereo not given)
[2]
  log(activity): 1.63

## COc1cc(CC(C)N)c(OC)c2c1OCO2 (stereo not given)
[2]
  log(activity): 1.13

## COc1cc(OC)c(OC)cc1CCN
[1]
  Ratio: 1

## CC(N)Cc1ccc2c(c1)OCO2 (stereo not given) [TENAMFETAMINE]
[2]
  log(activity): 0.41

## COc1cc(CCN)c2c(c1)OCO2
[1]
  Ratio: 1

## CN(C)CCc1c[nH]c2cc(O)ccc12
[1]
  Ratio: 25

## CCOc1cc(CC(C)N)c(OC)cc1OC (stereo not given)
[1]
  Ratio: 7

## CCOc1cc2c(cc1CC(C)N)OCO2 (stereo not given)
[1]
  Ratio: 7

## COc1ccc(CC(C)N)c(OC)c1 (stereo not given)
[2]
  log(activity): 0.67

## COc1ccc(OC)c(OC)c1CC(C)N (stereo not given)
[2]
  log(activity): 1.14

## COc1ccc(CCN)cc1OC
[1]
  Ratio: 0.2

## COc1c(CC(C)N)cc2c(c1OC)OCO2 (stereo not given)
[2]
  log(activity): 0.75

## COc1ccc(CC(C)N)cc1 (stereo not given) [PARA-METHOXYAMPHETAMINE]
[2]
  log(activity): 0.59

## CCCCCc1cc(OC)c(CC(C)N)cc1OC (stereo not given)
[2]
  log(activity): 1.09
